Test results: PubChem BioAssay AID1845210 (Molecular Pharmacology Branch, DTP, NCI, 2023)

System: NCI-H226 complex tumor spheroids, viability
Test: Anticancer human tumor NCI-H226 cell line growth inhibition;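 further: spheroids exposed to compound for 7 days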;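 on viability, T/C: 100% = DMSO vehicle control viability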
Conditions: for IC50: curve of first compound; for viability, T/C: stronger effect = lower value
Method in brief: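 Complex spheroids of malignant cells with endothelial cells and mesenchymal stem cells; agents alone or combined, from near clinical Cmax (or 10 microM if unknown) down in half-log steps, 0.25% DMSO final.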

[1] = second compound 1 µM, first compound 0.00949 µM
[2] = second compound 1 µM, first compound 0.03 µM
[3] = second compound 1 µM, first compound 0.0949 µM
[4] = second compound 1 µM, first compound 0.3 µM
[5] = second compound 1 µM, first compound 0.949 µM
[6] = second compound 1 µM, first compound 3 µM
[7] = second compound 3.16 µM, first compound 0.00949 µM
[8] = second compound 3.16 µM, first compound 0.03 µM
[9] = second compound 3.16 µM, first compound 0.0949 µM
[10] = second compound 3.16 µM, first compound 0.3 µM
[11] = second compound 3.16 µM, first compound 0.949 µM
[12] = second compound 3.16 µM, first compound 3 µM
[13] = second compound 10 µM, first compound 0.00949 µM
[14] = second compound 10 µM, first compound 0.03 µM
[15] = second compound 10 µM, first compound 0.0949 µM
[16] = second compound 10 µM, first compound 0.3 µM
[17] = second compound 10 µM, first compound 0.949 µM
[18] = second compound 10 µM, first compound 3 µM
[19] = second compound 31.6 µM, first compound 0.00949 µM
[20] = second compound 31.6 µM, first compound 0.03 µM
[21] = second compound 31.6 µM, first compound 0.0949 µM
[22] = second compound 31.6 µM, first compound 0.3 µM
[23] = second compound 31.6 µM, first compound 0.949 µM
[24] = second compound 31.6 µM, first compound 3 µM
[25] = second compound 100 µM, first compound 0.00949 µM
[26] = second compound 100 µM, first compound 0.03 µM
[27] = second compound 100 µM, first compound 0.0949 µM
[28] = second compound 100 µM, first compound 0.3 µM
[29] = second compound 100 µM, first compound 0.949 µM
[30] = second compound 100 µM, first compound 3 µM

Cn1ncnc1[C@H]1c2n[nH]c(=O)c3cc(F)cc(c23)N[C@@H]1c1ccc(F)cc1 + Cn1nnc2c(C(N)=O)ncn2c1=O
IC50 (second compound 1 µM): > 3000 nM | IC50 (second compound 3.16 µM): > 3000 nM | IC50 (second compound 10 µM): > 3000 nM | IC50 (second compound 31.6 µM): > 3000 nM | IC50 (second compound 100 µM): > 3000 nM | viability, T/C [1]: 101% | viability, T/C [2]: 103% | viability, T/C [3]: 99.4% | viability, T/C [4]: 91.2% | viability, T/C [5]: 85.8% | viability, T/C [6]: 97.8% | viability, T/C [7]: 105% | viability, T/C [8]: 55.1% | viability, T/C [9]: 94.8% | viability, T/C [10]: 85.6% | viability, T/C [11]: 93.1% | viability, T/C [12]: 105% | viability, T/C [13]: 108% | viability, T/C [14]: 89.9% | viability, T/C [15]: 86.8% | viability, T/C [16]: 88.6% | viability, T/C [17]: 89.5% | viability, T/C [18]: 97.5% | viability, T/C [19]: 101% | viability, T/C [20]: 95.2% | viability, T/C [21]: 96.4% | viability, T/C [22]: 91.8% | viability, T/C [23]: 82.3% | viability, T/C [24]: 90.7% | viability, T/C [25]: 106% | viability, T/C [26]: 108% | viability, T/C [27]: 95.8% | viability, T/C [28]: 87.1% | viability, T/C [29]: 100% | viability, T/C [30]: 93.5%

O=C(c1cc(Cc2n[nH]c(=O)c3ccccc23)ccc1F)N1CCN(C(=O)C2CC2)CC1 + Cn1nnc2c(C(N)=O)ncn2c1=O
IC50 (second compound 1 µM): > 30000 nM | IC50 (second compound 3.16 µM): > 30000 nM | IC50 (second compound 10 µM): > 30000 nM | IC50 (second compound 31.6 µM): > 30000 nM | IC50 (second compound 100 µM): > 30000 nM | viability, T/C [3]: 99.9% | viability, T/C [4]: 99.8% | viability, T/C [5]: 107% | viability, T/C [6]: 104% | viability, T/C (second compound 1 µM, first compound 9.49 µM): 99.2% | viability, T/C (second compound 1 µM, first compound 30 µM): 86.4% | viability, T/C [9]: 105% | viability, T/C [10]: 96.7% | viability, T/C [11]: 105% | viability, T/C [12]: 95.4% | viability, T/C (second compound 3.16 µM, first compound 9.49 µM): 81.9% | viability, T/C (second compound 3.16 µM, first compound 30 µM): 80.3% | viability, T/C [15]: 112% | viability, T/C [16]: 104% | viability, T/C [17]: 95.1% | viability, T/C [18]: 101% | viability, T/C (second compound 10 µM, first compound 9.49 µM): 84.6% | viability, T/C (second compound 10 µM, first compound 30 µM): 77.3% | viability, T/C [21]: 98.3% | viability, T/C [22]: 101% | viability, T/C [23]: 110% | viability, T/C [24]: 95.1% | viability, T/C (second compound 31.6 µM, first compound 9.49 µM): 84.6% | viability, T/C (second compound 31.6 µM, first compound 30 µM): 82% | viability, T/C [27]: 114% | viability, T/C [28]: 113% | viability, T/C [29]: 125% | viability, T/C [30]: 99.3% | viability, T/C (second compound 100 µM, first compound 9.49 µM): 97.8% | viability, T/C (second compound 100 µM, first compound 30 µM): 80.5%

Cc1sc2c(c1C)C(c1ccc(Cl)cc1)=NC(CC(=O)Nc1ccc(O)cc1)c1nnc(C)n1-2 (stereo not given) + Cn1nnc2c(C(N)=O)ncn2c1=O
IC50 (second compound 1 µM): 959 nM | IC50 (second compound 3.16 µM): 808 nM | IC50 (second compound 10 µM): 1000 nM | IC50 (second compound 31.6 µM): 1270 nM | IC50 (second compound 100 µM): 1570 nM | viability, T/C [1]: 83.4% | viability, T/C [2]: 85% | viability, T/C [3]: 74.9% | viability, T/C [4]: 68.4% | viability, T/C [5]: 48.8% | viability, T/C [6]: 40.3% | viability, T/C [7]: 79.2% | viability, T/C [8]: 78.7% | viability, T/C [9]: 81.1% | viability, T/C [10]: 63.2% | viability, T/C [11]: 49.4% | viability, T/C [12]: 39.6% | viability, T/C [13]: 90.6% | viability, T/C [14]: 78.3% | viability, T/C [15]: 76.8% | viability, T/C [16]: 66.4% | viability, T/C [17]: 46.8% | viability, T/C [18]: 42.5% | viability, T/C [19]: 87.1% | viability, T/C [20]: 80.2% | viability, T/C [21]: 70.2% | viability, T/C [22]: 71% | viability, T/C [23]: 52% | viability, T/C [24]: 38.5% | viability, T/C [25]: 92.7% | viability, T/C [26]: 80.2% | viability, T/C [27]: 84.8% | viability, T/C [28]: 67.8% | viability, T/C [29]: 55.4% | viability, T/C [30]: 42.5%
